“Also recorded” adds a separate entry of the source.
Key:
[1] = test system: mice with peripheral nerve injury (PNI) by sciatic nerve cuffing; test: Sciatic nerve cuff model of neuropathic pain: mechanical allodynia (von Frey filaments); format: in vivo, mouse
Excerpt: WT mice underwent unilateral PNI by sciatic nerve cuffing, a widely accepted model of neuropathic pain in mice (Valcin et al. The sciatic nerve cuffing model of neuropathic pain in mice, J Vis Exp, PMID: 25078668 (2014)). Sciatic nerve cuffing reliably induces signs of chronic pain, including sustained mechanical and thermal allodynia. In this model, mechanical allodynia assessed using von Frey filaments develops within 1 week, and is sustained thereafter.
(§1) Sciatic nerve cuff model of neuropathic pain (Valcin et al. The sciatic nerve cuffing model of neuropathic pain in mice, J Vis Exp, PMID: 25078668 (2014)). Surgeries are performed under ketamine/xylazine anesthesia using aseptic techniques. The common branch of the right sciatic nerve is dissected and a 2 mm long section of pre-split PE-20 tubing is placed around it. Shams undergo the same surgery without cuffing.
Mechanical hypersensitivity. The threshold for ipsi- and contralateral hindpaw withdrawal is determined using von Frey filaments (Chaplan et al., Quantitative assessment of tactile allodynia in the rat paw, J Neurosci Methods, 53:55-63, PMID: 7990513(1994)).Mice are placed in clear Plexiglas boxes on an elevated mesh screen.
Calibrated von Frey filaments are applied to the plantar surface of each hindpaw (0.16-15 gm). The “up-down method” (Chaplan et al., Quantitative assessment of tactile allodynia in the rat paw, J Neurosci Methods, 53:55-63, PMID: 7990513(1994)) is used to determine the withdrawal threshold.
MECHANICAL ALLODYNIA. The threshold for ipsi- and contralateral hindpaw withdrawal is determined using von Frey filaments. von Frey filaments are applied to the plantar surface of each hindpaw (0.16-4 gm). The “up-down method (Chaplan et al., Quantitative assessment of tactile allodynia in the rat paw, J Neurosci Methods, 53:55-63, PMID 7990513 (1994))” is used to determine the withdrawal threshold, as in our previous studies (Masri et al., Zona incerta: a role in central pain, J Neurophysiol, 102:181-91, PMID 19403748 (2009); Whitt et al., Pathological activity in mediodorsal thalamus of rats with spinal cord injury pain, J Neurosci, 33:3915-26, PMID 23447602 (2013)). Alternatively, the withdrawal threshold is determined using the Hugo Basile Dynamic Plantar Aesthesiometer (Stoelting).
On day 0, all mice underwent unilateral sciatic nerve cuffing, in which a 2 mm long section of pre-split PE-20 tubing is placed around the right sciatic nerve under sterile conditions (Yalcin et al., The sciatic nerve cuffing model of neuropathic pain in mice, J Vis Exp, PMID 25078668 (2014)).

[2] = test system: mice with peripheral nerve injury (PNI) by sciatic nerve cuffing; test: Sciatic nerve cuff model: cold/thermal allodynia (acetone); format: in vivo, mouse; details: WT mice
Procedure: as §1
(§2) Cold allodynia is assessed using acetone. A 10 μL volume of acetone is propelled via air burst from a 200 μL pipette onto the mid-plantar surface of the hind paw without touching the skin. Time spent elevating/licking/biting/shaking the stimulated paw, up to 15 sec, is measured with a stop watch. Each paw is stimulated 5×, allowing 5 min to elapse between successive paw stimulations.
as §2, with “THERMAL ALLODYNIA” for “Cold allodynia”, “acetone (Carey et al., Inflammatory and Neuropathic Nociception is Preserved in GPR55 Knockout Mice, Sci Rep, 7:944, PMID 28428628 (2017)).” for “acetone.”

[3] = test system: mice with peripheral nerve injury (PNI) by sciatic nerve cuffing; test: Sciatic nerve cuff model: thermal hyperalgesia (Hargreaves method); format: in vivo, mouse; details: adult male mice; intrathecal at lumbar 5, 5 ng/hour ×14 days from day +15; tested day +28
Procedure: THERMAL […] is assessed using the Hargreaves method, using a Hargreaves-type apparatus (Ugo Basile Plantar Test Instrument; Stoelting). An unrestrained animal is placed in a Perspex enclosure on the top of glass pane. An infrared generator placed below glass pane is aimed at the plantar surface of the hind paw and the time to withdrawal is recorded automatically via an optic sensor, avoiding experimental bias. Paw-withdrawal latency is calculated as the mean of 3-5 different measurements taken at 15 min intervals. […] On day 0, all mice underwent unilateral sciatic nerve cuffing, in which a 2 mm long section of pre-split PE-20 tubing is placed around the right sciatic nerve under sterile conditions (Yalcin et al., The sciatic nerve cuffing model of neuropathic pain in mice, J Vis Exp, PMID 25078668 (2014)).

[4] = test system: mice with peripheral nerve injury (PNI) by sciatic nerve cuffing; test: Sciatic nerve cuff model: anxiety- and depression-like behaviors (open field, elevated plus maze, tail suspension); format: in vivo, mouse; details: WT mice; 10 μg/day intraperitoneal starting on day 21 after PNI
Procedure: ANXIETY-LIKE and DEPRESSION-LIKE BEHAVIORS are assessed only one time, they are administered during the 3 days preceding euthanasia, and the order in which tests are applied is from least stressful to more stressful (as listed below). We follow standard protocols, fully described in Yalcin et al (Yalcin et al., A time-dependent history of mood disorders in a murine model of neuropathic pain, Biol Psychiatry, 70:946-53, PMID 21890110 (2011)). Open field testing is employed for measuring locomotor activity and willingness to explore in mice. A computerized tracking system (ANY-Maze; Stoelting Co.) records animal movements and calculates speed, distance and other parameters. Time spent exploring the center of the open field is inversely related to anxiety. Elevated Plus Maze (Colbourn Instruments). Rodents naturally tend to explore novel environments, but open, well lit, elevated areas are perceived as aversive. This test is widely used in rodent models of anxiety. Tail suspension test (Harvard Apparatus), which measures immobility time, as well as energy and power in motion, is employed as a measure of depression-like behavior in rodents.

IL-6 = test: Quantitative immunohistochemistry of ipsilateral dorsal horn astrocytes after PNI: IL-6; format: in vivo, mouse
Excerpt: (§3) Tissue analysis. Spinal cords are perfusion-fixed (4% PFA), cryoprotected and cryosectioned coronally (7 μm). The dorsal horns of L3-4, which innervates the plantar surface of the mouse hindpaw (Rigaud et al., Species and strain differences in rodent sciatic nerve anatomy: implications for studies of neuropathic pain, Pain, 136:188-201, PMID: 18316160 (2008)), are examined for markers of astrocyte activation (GFAP), Sur1-Trpm4 and IL-6, as well as the chemokines CCL2 and CXCL1. […]
(§4) Tissue analysis. […] The DRG and dorsal horns of L3-4, which innervate the plantar surface of the hindpaw (Rigaud et al., Species and strain differences in rodent sciatic nerve anatomy: implications for studies of neuropathic pain, Pain, 136:188-201, PMID 18316160 (2008)), are examined to quantify changes in, and the time course of those changes, for markers of astrocyte activation (GFAP), microglia/macrophage activation (Iba1, CD68), SUR1-TRPM4, IL-6, the chemokines, CCL2 and CXCL1 and their cognate receptors, CCR2 and CXCR2. Expression of these markers will be quantitatively compared in the different treatment groups using immunohistochemistry and in situ hybridization with cell-specific markers (GFAP, NeuN, Iba1, CD45). Quantitative comparisons will be validated using immunoblot and qPCR. […]

CCL2 = test: Quantitative immunohistochemistry of ipsilateral dorsal horn astrocytes after PNI: CCL2; format: in vivo, mouse
Excerpt: as §3, §4

CXCL1 = test: Quantitative immunohistochemistry of ipsilateral dorsal horn astrocytes after PNI: CXCL1; format: in vivo, mouse
Excerpt: as §3, §4

pCaMKII = test: Astrocytic pCaMKII post-PNI (immunolabeling); format: in vivo, mouse; details: versus vehicle, n=3/group
[5] = Normal mechanical or thermal sensitivity thresholds (non-sensitized condition); format: in vivo; details: non-sensitized condition (not shown)
GFAP or SUR1 = test: Intrathecal infusion in uninjured, naive mouse: GFAP and SUR1 expression; format: in vivo
Excerpt: Spinal cord-specific inhibition or downregulation of SUR1 in central glia. […] The anesthetized mouse is mounted in a stereotaxic apparatus, hair is clipped from the dorsal thoracolumbar region, and the skin is prepped with Betadine solution. Using microscopic visualization, a midline incision is made, the paraspinal muscles are dissected off of the spinous processes and laminae. The spinous processes of L6-S1 are removed using a high speed surgical drill, and the dura between them is punctured using a 27-g needle. The infusion cannula of a Brain infusion kit (30 gauge cannula; Brain Infusion kit 3) is advanced stereotactically 1 mm into the thecal sac and is secured to the spine with cement.

[6] = test system: experimental autoimmune encephalomyelitis; details: cited from earlier work
[7] = infusion of an appropriate dose of injectable glibenclamide, non-diabetics; below hypoglycemic threshold; cited from earlier work
[8] = administered via transdermal skin patch, preclinical; cited from earlier work
[9] = WT mice, 10 μg/day intraperitoneal starting on day 21 after PNI
[10] = Example 1 mice (FIG. 2D), compared to vehicle-treated controls
[11] = mice from FIG. 10 (10 μg/day IP from day 21), tissues at day 49 (FIG. 6D)

With `COc1ccc(Cl)cc1C(=O)NCCc1ccc(S(=O)(=O)NC(=O)NC2CCCCC2)cc1` [glibenclamide] as the compound, how does the mechanical allodynia ([1]; WT mice, 10 μg IP loading dose plus 40 ng/hr subcutaneous via mini-osmotic pump ×2 weeks, shortly after PNI) read?
Its mechanical allodynia is “significant blunting”.

What about the “duration of drug treatment required for complete reversal of mechanical allodynia” value [1, 9] of the same compound?
Its value is 2-3 weeks.

And the mechanical allodynia [1, 9]?
The mechanical allodynia was “significantly ameliorated; also recorded: gradual but complete reversal”.

And the “allodynia symptoms (mechanical allodynia, FIG. 3C)” value ([1]; WT mice, treatment beginning on day 18 after PNI, after allodynia was well established)?
Its value is “significant reversal”.

And the mechanical allodynia ([1]; adult male mice, intrathecal at lumbar 5, 5 ng/hour ×14 days from day +15, tested day +28)?
Its mechanical allodynia is “completely reversed”.

What about the cold allodynia ([2]; 10 μg IP loading dose plus 40 ng/hr subcutaneous via mini-osmotic pump ×2 weeks, shortly after PNI) of the same compound?
Its cold allodynia is “significant blunting”.

And the thermal allodynia ([2]; 10 μg/day intraperitoneal starting on day 21 after PNI)?
Its thermal allodynia is “significantly ameliorated”.

What about the thermal hyperalgesia [3] of the same compound?
Its thermal hyperalgesia is “completely reversed”.

And the “anxiety behaviors (open field and elevated plus maze)” value [4]?
Its value is “significantly ameliorated”.

What about the “depression-like behaviors (tail suspension)” value [4] of the same compound?
The value was “significantly ameliorated”.

And the “IL-6 in ipsilateral dorsal horn astrocytes” value (IL-6; [10])?
The value was “significant reduction”.

And the “IL-6 in ipsilateral dorsal horn astrocytes” value (IL-6; [11])?
The value was “significant reductions”.

What about the “CCL2 in ipsilateral dorsal horn astrocytes” value (CCL2; [10]) of the same compound?
Its value is “significant reduction”.

And the “CCL2 in ipsilateral dorsal horn astrocytes” value (CCL2; [11])?
The value was “significant reductions”.

And the “CXCL1 in ipsilateral dorsal horn astrocytes” value (CXCL1; [10])?
Its value is “significant reduction”.

What about the “CXCL1 in ipsilateral dorsal horn astrocytes” value (CXCL1; [11]) of the same compound?
Its value is “significant reductions”.

What about the “astrocytic pCaMKII” value (pCaMKII) of the same compound?
The value was “increases”.

What about the “normal mechanical sensitivity thresholds” value [5] of the same compound?
Its value is “does not modify”.

What about the “normal thermal sensitivity thresholds” value [5] of the same compound?
The value was “does not modify”.

And the “upregulation of GFAP or SUR1” value (GFAP or SUR1)?
The value was “does not upregulate GFAP or SUR1”.

What about the “entry into spinal cord tissues” value ([6]; CNS inflammatory condition (EAE)) of the same compound?
Its value is “readily enters spinal cord tissues”.

And the inflammation ([6]; EAE spinal cord)?
Its inflammation is “ameliorates inflammation”.

And the serum levels [7]?
Its serum levels is under 45 ng/mL.

What about the plasma levels [8] of the same compound?
The plasma levels was “steady plasma levels of drug that can be maintained below the hypoglycemic threshold”.

Reference: patent US20210046094A1, “COMPOSITIONS AND METHODS FOR TREATING PAIN” (THE UNITED STATES GOVERNMENT AS REPRESENTED BY THE …, priority 2018, published 2021)
